Experimental data: ChEMBL document CHEMBL3639310, “Substituted dihydropyrazolones and their use” (2013)

Biological target: Egl nine homolog 1 (Homo sapiens, UniProt Q9GZT9)
Assay: In Vitro Inhibition Assay: In vitro tests for determination of the activity and selectivity of HIF prolyl 4-hydroxylase inhibitors. Hydroxylated HIF bonds specifically to the von Hippel-Lindau protein-elongin B-elongin C complex (VBC complex). This interaction occurs only if HIF is hydroxylated on a conserved prolyl radical. It is the basis for the biochemical determination of HIF prolyl hydroxylase activity. The test is carried out as described [Oehme F., Jonghaus W., Narouz-Ott L., Huetter J., Flamme I., Anal. Biochem. 330 (1), 74-80 (2004)].

Chain of Egl nine homolog 1 (Q9GZT9 whole entry, looked up): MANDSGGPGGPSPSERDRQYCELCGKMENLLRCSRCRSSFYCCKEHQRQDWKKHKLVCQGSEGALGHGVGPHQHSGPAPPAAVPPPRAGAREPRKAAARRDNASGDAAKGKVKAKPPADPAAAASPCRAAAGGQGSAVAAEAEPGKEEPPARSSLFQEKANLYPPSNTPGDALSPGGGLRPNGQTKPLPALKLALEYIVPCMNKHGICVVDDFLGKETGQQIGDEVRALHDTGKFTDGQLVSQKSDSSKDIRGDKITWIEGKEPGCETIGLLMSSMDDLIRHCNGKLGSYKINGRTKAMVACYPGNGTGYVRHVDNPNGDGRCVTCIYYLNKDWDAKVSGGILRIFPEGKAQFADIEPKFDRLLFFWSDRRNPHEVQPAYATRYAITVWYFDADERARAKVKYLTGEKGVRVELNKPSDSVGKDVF

- IC50: 0.09 µM
Compound: N#Cc1cn(-c2c[nH]n(-c3cc(N4CC(F)(F)C4)ncn3)c2=O)cn1
